{"source": "patent US20040253243A1", "about": "“Aptamer therapeutics useful in ocular pharmacotherapy” (priority 2003, published 2004)", "key": {"PDGF AB and BB": {"test_system": "PDGF AB and BB", "sequence (P01127 82-190 limits assumed)": "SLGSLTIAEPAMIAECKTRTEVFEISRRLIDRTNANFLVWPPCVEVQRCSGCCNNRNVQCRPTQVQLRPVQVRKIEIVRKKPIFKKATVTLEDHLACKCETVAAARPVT", "assay": "PDGF binding (Kd)", "design": "species or system human"}, "PDGF AA isoform": {"target": "PDGF AA isoform (Homo sapiens, UniProt P04085)", "assay": "PDGF AA isoform binding", "conditions": "FIG. 13A"}, "rat PDGF": {"target": "rat PDGF (Rattus norvegicus, UniProt Q05028)", "sequence (Q05028 74-182 limits assumed)": "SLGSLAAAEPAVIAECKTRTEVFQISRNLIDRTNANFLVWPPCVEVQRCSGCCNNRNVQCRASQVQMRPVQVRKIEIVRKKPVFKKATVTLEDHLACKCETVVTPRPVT", "assay": "Rat PDGF binding", "conditions": "FIG. 14A"}, "[1]": {"test_system": "PDGF-induced 3T3 cell proliferation", "assay": "PDGF-induced 3T3 cell proliferation", "type": "cell-based", "conditions": "compared with anti-PDGF antibody (Upstate/Cell Signaling Solutions)"}, "PDGF [2]": {"target": "T1, PDGF (Homo sapiens, UniProt P01127)", "T1 sequence (P01127 82-190 limits assumed)": "as the sequence (P01127 82-190 limits assumed) above", "assay": "Cellular IC50 of anti-PDGF aptamer", "type": "cell-based"}, "[3]": {"test_system": "retinal pigmented epithelial (RPE) cells", "assay": "RPE cell migration with PDGF", "type": "cell-based", "conditions": "100 ng/ml PDGF", "source_text": "The graphs presented in FIG. 15E and 15F show the increasing effect of PDGF concentration on RPE cell migration."}, "[4]": {"assay": "Animal models for glomerulonephritis, restenosis, cancer and pulmonary hypertension", "type": "in vivo"}, "[5]": {"conditions": "rabbit, in vivo", "description": "Studies were performed in the Dutch-belted rabbit model using […]. Aptamers were administered at a dose level of 1.0 mg/eye, bilaterally via […] intravitreal injection. Samples from the aqueous humor, vitreous humor and plasma were taken before administration of the aptamer and a 0.25 h, 6 h, 24 h, 72 h, 7d, […], and 21d. FIGS. 22A, 22B and 22C show the vitreous humor and/or plasma concentration of each aptamer through 25 days post administration.\nThe results shown in FIG. 22A were obtained using noncompartmental (NCA) analysis. The volume of rabbit vitreous humor was approximately 1.0-1.5 ml."}, "[6]": {"conditions": "mouse, in vivo; for AUC / MRT / tmax / t½: 10 mg/kg"}, "[7]": {"conditions": "in vivo, iv"}, "PDGF [8]": {"target": "T1, PDGF", "conditions": "iv"}, "[9]": {"conditions": "rabbit, in vivo", "remark": "listed apart in the source"}}, "note": "Like-named read-outs stand apart in the source and are kept apart here.", "data": [{"substance": "5′-[PEG40K]-NH2-dCdAdGdGdCfUdAfCmG-PEG-dCdGTdAmGdAmGdCdAfUfCmA-PEG-TdGdATfCfCfUmG-3T-3′ [ARC127]", "values": [{"measurement": "recognition of BB and AB isoforms of PDGF", "setting": "PDGF AB and BB; FIGS. 13A and 13B", "result": "recognizes the BB and AB isoforms of PDGF"}, {"measurement": "Kd", "setting": "PDGF AB and BB; anti-PDGF aptamer, isoform not stated, read-out: dissociation constant (Kd)", "result": 100, "unit": "pM"}, {"measurement": "Kd", "setting": "PDGF AB and BB; read-out: Kd, PDGF AB and BB", "result": 100, "unit": "pM"}, {"measurement": "recognition of AA isoform of PDGF", "setting": "PDGF AA isoform", "result": "not the AA isoform alone"}, {"measurement": "affinity for human and rat PDGFs", "setting": "rat PDGF", "result": "equivalent affinity"}, {"measurement": "ability to block PDGF-induced 3T3 cell proliferation", "setting": "[1]", "result": "comparable to the ability of an anti-PDGF antibody"}, {"measurement": "IC50", "setting": "PDGF [2]", "result": 2000, "unit": "pM"}, {"measurement": "blocking of RPE cell migration", "setting": "[3]", "result": "specifically blocks migration of retinal pigmented epithelial (RPE) cells"}, {"measurement": "efficacy in animal models", "setting": "[4]", "result": "efficacy in the animal models for glomerulonephritis, restenosis, cancer and pulmonary hypertension"}, {"measurement": "Cl", "setting": "[5]", "result": 0.29, "unit": "mL?d^−1"}, {"measurement": "Cmax", "setting": "[5]", "result": "~100", "unit": "µM"}, {"measurement": "Vss", "setting": "[5]", "result": 1.42, "unit": "mL"}, {"measurement": "half life in the vitreous humor", "setting": "[5]", "result": 84, "unit": "h"}, {"measurement": "t1/2", "setting": "[5]", "result": 92.9, "unit": "h"}, {"measurement": "tmax", "setting": "[5]", "result": 0.25, "unit": "h"}, {"measurement": "bioavailability", "setting": "[6]; ip", "result": 62.5, "unit": "%"}, {"measurement": "AUC", "setting": "[6]; ip", "result": 143.6055, "unit": "µM·h"}, {"measurement": "MRT", "setting": "[6]; ip", "result": 11.23, "unit": "h"}, {"measurement": "tmax", "setting": "[6]; ip", "result": 8, "unit": "h"}, {"measurement": "t½", "setting": "[6]; ip", "result": 7.86, "unit": "h"}, {"measurement": "AUC", "setting": "[6]; iv", "result": 229.6868, "unit": "µM·h"}, {"measurement": "MRT", "setting": "[6]; iv", "result": 6.57, "unit": "h"}, {"measurement": "tmax", "setting": "[6]; iv", "result": 2, "unit": "h"}, {"measurement": "t½", "setting": "[6]; iv", "result": 8.60, "unit": "h"}, {"measurement": "bioavailability", "setting": "[6]; sc", "result": 24.0, "unit": "%"}, {"measurement": "AUC", "setting": "[6]; sc", "result": 55.0309, "unit": "µM·h"}, {"measurement": "MRT", "setting": "[6]; sc", "result": 16.63, "unit": "h"}, {"measurement": "tmax", "setting": "[6]; sc", "result": 8, "unit": "h"}, {"measurement": "t½", "setting": "[6]; sc", "result": 9.18, "unit": "h"}, {"measurement": "systemic half life", "setting": "[7]", "result": "6 to 12", "unit": "h"}, {"measurement": "duration of measurable activity in vivo", "setting": "PDGF [8]", "result": 48, "unit": "h"}, {"measurement": "half life (intravitreal)", "setting": "[9]", "result": 92.9, "unit": "h"}]}]}
